According to patent publication US10259810B2, “N-sulfonylated pyrazolo[3,4-b]pyridin-6-carboxamides and method of use” (AbbVie S.à.r.l., priority 2015, dated 2019):
Read-outs that look alike come from different tables or passages of the source.

How the values were obtained:
Type in all cases: cell-based
ΔF508-CFTR [1] = biological target: T1, ΔF508-CFTR (Homo sapiens, UniProt P13569, DEL508-508); experiment: CFTR cell surface levels using HRP-tagged ΔF508-CFTR expressing CFBE cells, in the presence of a co-corrector; conditions: HRP-tagged ΔF508-CFTR CFBE cells, in the presence of 3 μM co-corrector; for EC50: read-out: EC50
T1 construct: host or cells: CFBE41o-, doxycycline-inducible
How it was run: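 Chemiluminescent read-out of surface HRP (15 min, dark) after PBS washes. Activity is normalized as 100×(sample−DMSO)/(3 μM co-corrector alone−DMSO).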

ΔF508-CFTR [2] = biological target: T1, ΔF508-CFTR; experiment: CFTR cell surface levels using HRP-tagged ΔF508-CFTR expressing CFBE cells, intrinsic corrector capacity; set-up: % Activation: concentration or dose not given beside the values; conditions: HRP-tagged ΔF508-CFTR expressing CFBE41o- cells, compound alone (intrinsic corrector capacity), 20 hours at 33° C.; for EC50: read-out: EC50
How it was run: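 Surface ΔF508-CFTR was measured as HRP chemiluminescence from an extracellular-loop-4 tag, expressed as percent activity between DMSO and a […] corrector control.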

CFTR ΔF508 = biological target: T2, CFTR ΔF508 (Homo sapiens, UniProt P13569, DEL508-508); experiment: Chronic TECC assay, primary bronchial epithelial cells of CF patients homozygous for CFTR ΔF508 (corrector, co-corrector and potentiator); conditions: chronic TECC; for % Activity at 3 μM (AUC**): test compound at 3 μM
T2 construct: bronchial epithelial cells isolated from CF patients homozygous for the CFTR ΔF508 mutation; McGill University; Asterand; University of North Carolina hAEC-CF; host or cells: primary human bronchial epithelial cells from CF patients homozygous for ΔF508, differentiated at air-liquid interface
Experimental: Primary Bronchial Epithelial Cells Protocol
The TECC (Tranepithelial Clamp Circuit, EP-design) assay measures the functionality of the cystic fibrosis Transmembrane Conductance regulator (CFTR) by measuring the short circuit current (Isc) generated over the basolateral and apical membrane of lung epithelial cells. In TECC the transepithelial potential PD and transepithelial resistance (Rt) are measured in an open circuit and transformed to Ieq using Ohm's law. 24 Wells can be measured simultaneously allowing a higher throughput compared to Ussing chambers.
For this purpose, bronchial epithelial cells isolated from CF patients homozygous for the CFTR ΔF508 mutation (hAEC-CF, Epithelix, Geneva, Switzerland; McGill University, Montreal, Qc; Asterand, Detroit, Mich.; University of North Carolina, Chapel Hill, N.C.) are plated on type IV collagen-coated Transwell® supports (Costar).
For electrophysiological recording of the “chronic” experiments, the human airway epithelia are mounted in the TECC heating plate for electrophysiological measurement and kept at 37° C. The epithelia are bathed in a NaCl-Ringer solution (120 mM NaCl, 25 mM NaHCO3, 1.2 mM CaCl2, 1.2 mM MgCl2, 0.8 mM KH2PO4, 0.8 mM K2HPO4, pH 7.4, 5 mM glucose) on both the basolateral and apical sides. Test compounds (corrector, co-corrector, 4-[(2R,4R)-4-({[1-(2,2-difluoro-1,3-benzodioxol-5-yl)cyclopropyl]carbonyl}amino)-7-(difluoromethoxy)-3,4-dihydro-2H-chromen-2-yl]benzoic acid, and potentiator, N-(3-carbamoyl-5,5,7,7-tetramethyl-4,7-dihydro-5H-thieno[2,3-c]pyran-2-yl)-1H-pyrazole-5-carboxamide), are re-added to the recording solution prior to measurement. […] Apical amiloride is used to inhibit the endogenous ENaC currents while forskolin is applied on both apical and basolateral side to stimulate CFTR. Measurements are done during a 20 minute timeframe with recordings every 2 minutes. The increase in Ieq is used as a measure for the increased CFTR activity, EC50 values can be generated by measuring impact of different concentrations of compound on Ieq on primary cells, for this purpose each transwell is treated with a different compound concentration. […] Raw data were normalized to percentage activity values using the equation: 100×(Sample−Negative control)/(Positive control−Negative Control).

[3] = test compound at 1 μM, AUC = full area under the curve upon forskolin stimulation
[4] = AUC = full area under the curve upon forskolin stimulation, read-out: EC50 (nM) (AUC**)
[5] = AUC = full area under the curve upon forskolin stimulation

T2 sequence (P13569 with tags, fused parts or gaps DEL508-508): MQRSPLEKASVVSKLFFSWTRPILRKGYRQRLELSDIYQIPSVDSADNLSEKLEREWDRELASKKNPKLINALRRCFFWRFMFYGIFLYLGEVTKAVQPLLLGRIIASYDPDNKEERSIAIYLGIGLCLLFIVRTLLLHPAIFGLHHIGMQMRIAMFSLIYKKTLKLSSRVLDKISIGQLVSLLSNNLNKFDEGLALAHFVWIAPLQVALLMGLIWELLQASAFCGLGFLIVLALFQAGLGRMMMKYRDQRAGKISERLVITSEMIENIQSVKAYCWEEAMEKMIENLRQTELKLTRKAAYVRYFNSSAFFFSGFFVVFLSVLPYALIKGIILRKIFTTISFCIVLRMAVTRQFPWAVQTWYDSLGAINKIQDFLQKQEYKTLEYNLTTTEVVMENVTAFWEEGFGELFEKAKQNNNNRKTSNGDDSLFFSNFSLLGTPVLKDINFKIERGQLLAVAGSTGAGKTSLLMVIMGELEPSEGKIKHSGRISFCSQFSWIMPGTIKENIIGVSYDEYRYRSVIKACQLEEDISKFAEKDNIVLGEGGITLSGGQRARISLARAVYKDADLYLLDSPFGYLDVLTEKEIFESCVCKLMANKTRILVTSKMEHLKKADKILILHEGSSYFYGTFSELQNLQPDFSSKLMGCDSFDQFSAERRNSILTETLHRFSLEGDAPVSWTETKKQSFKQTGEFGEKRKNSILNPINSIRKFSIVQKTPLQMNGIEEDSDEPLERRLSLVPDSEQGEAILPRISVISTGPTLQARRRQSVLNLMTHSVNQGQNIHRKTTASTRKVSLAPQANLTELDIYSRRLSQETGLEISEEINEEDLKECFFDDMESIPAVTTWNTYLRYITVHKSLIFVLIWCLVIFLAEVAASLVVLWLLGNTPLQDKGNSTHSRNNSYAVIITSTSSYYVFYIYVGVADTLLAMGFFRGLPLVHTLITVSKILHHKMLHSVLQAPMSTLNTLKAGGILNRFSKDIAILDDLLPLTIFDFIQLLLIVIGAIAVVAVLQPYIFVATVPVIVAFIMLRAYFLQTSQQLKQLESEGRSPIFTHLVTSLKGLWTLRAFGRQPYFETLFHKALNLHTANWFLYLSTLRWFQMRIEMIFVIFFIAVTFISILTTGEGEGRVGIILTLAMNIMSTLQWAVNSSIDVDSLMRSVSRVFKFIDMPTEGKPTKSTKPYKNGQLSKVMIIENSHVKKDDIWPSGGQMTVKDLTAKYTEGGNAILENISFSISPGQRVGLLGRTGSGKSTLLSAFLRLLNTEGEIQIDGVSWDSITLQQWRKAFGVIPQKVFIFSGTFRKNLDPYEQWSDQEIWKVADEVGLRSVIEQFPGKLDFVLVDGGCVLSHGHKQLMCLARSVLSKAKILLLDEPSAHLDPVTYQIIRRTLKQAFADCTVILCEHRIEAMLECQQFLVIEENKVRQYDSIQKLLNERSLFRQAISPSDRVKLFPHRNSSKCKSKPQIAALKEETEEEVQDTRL
T1 sequence (P13569 with tags, fused parts or gaps DEL508-508): as above

CN(C)S(=O)(=O)NC(=O)c1cc(N2CCC(N3CCOCC3)CC2)c2c(C3CCC3)nn(-c3ccccc3)c2n1 [Compound 456, 3-cyclobutyl-N-(dimethylsulfamoyl)-4-[4-(morpholin-4-yl)piperidin-1-yl]-1-phenyl-1H-pyrazolo[3,4-b]pyridine-6-carboxamide]
% Activation (ΔF508-CFTR [1]): 457.7%
EC50 (ΔF508-CFTR [1]): 0.0933 µM
% Activation (ΔF508-CFTR [2]): 268.4%
EC50 (ΔF508-CFTR [2]): 0.158 µM
% Activity at 1 μM (AUC**) (CFTR ΔF508; [3]): 261.1621%

COC1CCN(C2CCN(c3cc(C(=O)NS(=O)(=O)N4CC(F)C4)nc4c3c(C3CCC3)nn4-c3ccc(F)cc3)CC2)CC1 [Compound 646, 3-cyclobutyl-N-(3-fluoroazetidine-1-sulfonyl)-1-(4-fluorophenyl)-4-(4-methoxy[1,4'-bipiperidin]-1'-yl)-1H-pyrazolo[3,4-b]pyridine-6-carboxamide]
% Activation (ΔF508-CFTR [1]): 447.9%
EC50 (ΔF508-CFTR [1]): 0.259 µM
% Activation (ΔF508-CFTR [2]): 236.13%
EC50 (ΔF508-CFTR [2]): 0.4 µM
EC50 (CFTR ΔF508; [4]): 23.5 nM
% Activity at 3 μM (AUC**) (CFTR ΔF508; [5]): 276.7167%

CC(C)c1nn(-c2cccc(N(C)C)c2)c2nc(C(=O)NS(C)(=O)=O)cc(-c3cnc(N(C)C4CCOCC4)nc3)c12 [Compound 91, 1-[3-(dimethylamino)phenyl]-N-(methanesulfonyl)-4-{2-[methyl(oxan-4-yl)amino]pyrimidin-5-yl}-3-(propan-2-yl)-1H-pyrazolo[3,4-b]pyridine-6-carboxamide]
% Activation (ΔF508-CFTR [1]): 619.45%
EC50 (ΔF508-CFTR [1]): 0.891 µM
% Activation (ΔF508-CFTR [2]): 388.15%
EC50 (ΔF508-CFTR [2]): 0.382 µM
EC50 (CFTR ΔF508; Ieq = calculations based on the maximum current, read-out: EC50 (nM) (Ieq*)): < 30 nM
% Activity at 1 μM (Ieq*) (CFTR ΔF508; test compound at 1 μM, Ieq = calculations based on the maximum current): 250%

CC(C)N1CCN(c2cc(C(=O)NS(C)(=O)=O)nc3c2c(C2CCC2)nn3-c2ccccc2)CC1 [Compound 270, 3-cyclobutyl-N-(methanesulfonyl)-1-phenyl-4-[4-(propan-2-yl)piperazin-1-yl]-1H-pyrazolo[3,4-b]pyridine-6-carboxamide]
% Activation (ΔF508-CFTR [1]): 327.9%
EC50 (ΔF508-CFTR [1]): 0.731 µM
% Activation (ΔF508-CFTR [2]): 161.5%
EC50 (ΔF508-CFTR [2]): 1.49 µM
EC50 (CFTR ΔF508; [4]): 297 nM
% Activity at 1 μM (AUC**) (CFTR ΔF508; [3]): 250%

CNS(=O)(=O)NC(=O)c1cc(N2CCC(N3CCN(C(C)C)CC3)CC2)c2c(C3CCC3)nn(-c3ccc(F)cc3)c2n1 [Compound 638, 3-cyclobutyl-1-(4-fluorophenyl)-N-(methylsulfamoyl)-4-{4-[4-(propan-2-yl)piperazin-1-yl]piperidin-1-yl}-1H-pyrazolo[3,4-b]pyridine-6-carboxamide]
% Activation (ΔF508-CFTR [1]): 606.08%
EC50 (ΔF508-CFTR [1]): 0.095 µM
% Activation (ΔF508-CFTR [2]): 398.98%
EC50 (ΔF508-CFTR [2]): 0.241 µM
EC50 (CFTR ΔF508; [4]): 11.2 nM
% Activity at 3 μM (AUC**) (CFTR ΔF508; [5]): 341.3493%

COCC1CCN(c2cc(C(=O)NS(C)(=O)=O)nc3c2c(C2CCC2)nn3-c2ccnc(OC)c2)CC1 [Compound 385, 3-cyclobutyl-N-(methanesulfonyl)-4-[4-(methoxymethyl)piperidin-1-yl]-1-(2-methoxypyridin-4-yl)-1H-pyrazolo[3,4-b]pyridine-6-carboxamide]
% Activation (ΔF508-CFTR [1]): 393.53%
EC50 (ΔF508-CFTR [1]): 0.064 µM
% Activation (ΔF508-CFTR [2]): 227.5%
EC50 (ΔF508-CFTR [2]): 0.121 µM
EC50 (CFTR ΔF508; [4]): 12.3 nM

CC(C)Oc1nn(C2CCCCC2)c2nc(C(=O)NS(C)(=O)=O)cc(-c3ccc(CN4CCN(C5CC5)CC4)cc3)c12 [Compound 597, 1-cyclohexyl-4-{4-[(4-cyclopropylpiperazin-1-yl)methyl]phenyl}-N-(methanesulfonyl)-3-[(propan-2-yl)oxy]-1H-pyrazolo[3,4-b]pyridine-6-carboxamide]
% Activation (ΔF508-CFTR [1]): 433.93%
EC50 (ΔF508-CFTR [1]): 0.111 µM
% Activation (ΔF508-CFTR [2]): 214.3%
EC50 (ΔF508-CFTR [2]): 0.13 µM
% Activity at 1 μM (AUC**) (CFTR ΔF508; [3]): 263.3333%

CS(=O)(=O)NC(=O)c1cc(N2CCC(CCN3CCOCC3)CC2)c2c(C3CCC3)nn(-c3ccc(F)cc3)c2n1 [Compound 431, 3-cyclobutyl-1-(4-fluorophenyl)-N-(methanesulfonyl)-4-{4-[2-(morpholin-4-yl)ethyl]piperidin-1-yl}-1H-pyrazolo[3,4-b]pyridine-6-carboxamide]
% Activation (ΔF508-CFTR [1]): 568.8%
EC50 (ΔF508-CFTR [1]): 0.047 µM
% Activation (ΔF508-CFTR [2]): 344.95%
EC50 (ΔF508-CFTR [2]): 0.109 µM
% Activity at 1 μM (AUC**) (CFTR ΔF508; [3]): 280%

COCC1CCN(c2cc(C(=O)NS(=O)(=O)c3cnn(C)c3)nc3c2c(C2CCC2)nn3-c2ccccc2)CC1 [Compound 245, 3-cyclobutyl-4-[4-(methoxymethyl)piperidin-1-yl]-N-(1-methyl-1H-pyrazole-4-sulfonyl)-1-phenyl-1H-pyrazolo[3,4-b]pyridine-6-carboxamide]
% Activation (ΔF508-CFTR [1]): 460%
EC50 (ΔF508-CFTR [1]): 0.694 µM
% Activation (ΔF508-CFTR [2]): 228%
EC50 (ΔF508-CFTR [2]): 0.495 µM
% Activity at 1 μM (AUC**) (CFTR ΔF508; [3]): 628.25%

CN(C)S(=O)(=O)NC(=O)c1cc(N2CCC(N3CCOCC3)CC2)c2c(C3CCC3)nn(-c3ccnc(OC(F)F)c3)c2n1 [Compound 575, 3-cyclobutyl-1-[2-(difluoromethoxy)pyridin-4-yl]-N-(dimethylsulfamoyl)-4-[4-(morpholin-4-yl)piperidin-1-yl]-1H-pyrazolo[3,4-b]pyridine-6-carboxamide]
% Activation (ΔF508-CFTR [1]): 361.3%
EC50 (ΔF508-CFTR [1]): 0.0878 µM
% Activation (ΔF508-CFTR [2]): 202.65%
EC50 (ΔF508-CFTR [2]): 0.147 µM
% Activity at 1 μM (AUC**) (CFTR ΔF508; [3]): 246.6667%

CN(C)S(=O)(=O)NC(=O)c1cc(N2CCC(CN3CCOCC3)CC2)c2c(C3CCC3)nn(C3CCCCC3)c2n1 [Compound 424, 3-cyclobutyl-1-cyclohexyl-N-(dimethylsulfamoyl)-4-{4-[(morpholin-4-yl)methyl]piperidin-1-yl}-1H-pyrazolo[3,4-b]pyridine-6-carboxamide]
% Activation (ΔF508-CFTR [1]): 453.88%
EC50 (ΔF508-CFTR [1]): 0.0922 µM
% Activation (ΔF508-CFTR [2]): 249.25%
EC50 (ΔF508-CFTR [2]): 0.244 µM
% Activity at 3 μM (AUC**) (CFTR ΔF508; [5]): 462.0976%

COCCS(=O)(=O)NC(=O)c1cc(-c2ccc(N3CCOCC3)cc2)c2c(OC(C)C)nn(-c3ccccc3)c2n1 [Compound 226, N-(2-methoxyethanesulfonyl)-4-[4-(morpholin-4-yl)phenyl]-1-phenyl-3-[(propan-2-yl)oxy]-1H-pyrazolo[3,4-b]pyridine-6-carboxamide]
% Activation (ΔF508-CFTR [1]): 392.95%
EC50 (ΔF508-CFTR [1]): 0.386 µM
% Activation (ΔF508-CFTR [2]): 206.7%
EC50 (ΔF508-CFTR [2]): 0.445 µM
EC50 (CFTR ΔF508; [4]): 56 nM
% Activity at 1 μM (AUC**) (CFTR ΔF508; [3]): 530%

CS(=O)(=O)NC(=O)c1cc(OCC2CCOCC2)c2c(C3CCC3)nn(-c3ccc(F)cc3)c2n1 [Compound 318, 3-cyclobutyl-1-(4-fluorophenyl)-N-(methanesulfonyl)-4-[(oxan-4-yl)methoxy]-1H-pyrazolo[3,4-b]pyridine-6-carboxamide]
% Activation (ΔF508-CFTR [1]): 359.5%
EC50 (ΔF508-CFTR [1]): 0.184 µM
% Activation (ΔF508-CFTR [2]): 183.45%
EC50 (ΔF508-CFTR [2]): 0.411 µM
% Activity at 1 μM (AUC**) (CFTR ΔF508; [3]): 439.94%

COC(=O)N1CCC(COc2cc(C(=O)NS(C)(=O)=O)nc3c2c(C(C)C)nn3-c2ccc(F)cc2)CC1 [Compound 322, methyl 4-({[1-(4-fluorophenyl)-6-[(methanesulfonyl)carbamoyl]-3-(propan-2-yl)-1H-pyrazolo[3,4-b]pyridin-4-yl]oxy}methyl)piperidine-1-carboxylate]
% Activation (ΔF508-CFTR [1]): 342.75%
EC50 (ΔF508-CFTR [1]): 0.0614 µM
% Activation (ΔF508-CFTR [2]): 158.25%
EC50 (ΔF508-CFTR [2]): 0.128 µM
% Activity at 1 μM (AUC**) (CFTR ΔF508; [3]): 440.86%
